Laboratory results from PubChem BioAssay AID248 (DTP/NCI, 2004).
Where “and” joins values, the source holds several entries; their conditions need not be identical. Equal entries are not always repeated. Toxic doses and inconclusive results are not listed.

System: L1210 leukemia ip in BDF1 mice, survival T/C
Experiment: NCI In Vivo Anticancer Drug Screen. Data for tumor model L1210 Leukemia (intraperitoneal) in B6D2F1 (BDF1) mice
Conditions: endpoint: mean survival time, higher = longer survival
Summary of the method: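 Read-out is survival time, reported as the treated-group measurement over the vehicle-control measurement.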

[1] = dose: 100.0 mg/kg/injection, schedule: Q04DX003 (ip), vehicle: Klucel (hydroxypropylcellulose) (HPC)
[2] = dose: 100.0 mg/kg/injection, schedule: Q01DX009 (ip), vehicle: Klucel (hydroxypropylcellulose) (HPC)
[3] = dose: 200.0 mg/kg/injection, schedule: Q01DX009 (ip), vehicle: Klucel (hydroxypropylcellulose) (HPC)
[4] = dose: 400.0 mg/kg/injection, schedule: Q01DX009 (ip), vehicle: Klucel (hydroxypropylcellulose) (HPC)
[5] = dose: 100.0 mg/kg/injection, schedule: Q01DX009 (ip), vehicle: saline with Tween-80
[6] = dose: 100.0 mg/kg/injection, schedule: Q04DX003 (ip), vehicle: saline with Tween-80
[7] = dose: 200.0 mg/kg/injection, schedule: Q01DX009 (ip), vehicle: saline with Tween-80
[8] = dose: 200.0 mg/kg/injection, schedule: Q04DX003 (ip), vehicle: saline with Tween-80
[9] = dose: 400.0 mg/kg/injection, schedule: Q01DX009 (ip), vehicle: saline with Tween-80
[10] = dose: 400.0 mg/kg/injection, schedule: Q04DX003 (ip), vehicle: saline with Tween-80
[11] = dose: 200.0 mg/kg/injection, schedule: Q04DX003 (ip), vehicle: Klucel (hydroxypropylcellulose) (HPC)
[12] = dose: 400.0 mg/kg/injection, schedule: Q04DX003 (ip), vehicle: Klucel (hydroxypropylcellulose) (HPC)

C=CCc1cnc(SCc2ccccc2)[nH]c1=O
T/C (dose: 100.0 mg/kg/injection, schedule: Q01DX001 (ip), vehicle: gum acacia): 101 % of control
T/C (dose: 200.0 mg/kg/injection, schedule: Q01DX001 (ip), vehicle: gum acacia): 91 % of control
T/C (dose: 400.0 mg/kg/injection, schedule: Q01DX001 (ip), vehicle: gum acacia): 94 % of control

CCCC(C)C(C#N)c1ccccc1 (stereo not given)
T/C (dose: 25.0 mg/kg/injection, schedule: Q01DX009 (ip), vehicle: Klucel (hydroxypropylcellulose) (HPC)): 101 % of control and 103 % of control
T/C (dose: 25.0 mg/kg/injection, schedule: Q04DX003 (ip), vehicle: Klucel (hydroxypropylcellulose) (HPC)): 95 % of control
T/C (dose: 50.0 mg/kg/injection, schedule: Q01DX009 (ip), vehicle: Klucel (hydroxypropylcellulose) (HPC)): 93 % of control and 98 % of control and 90 % of control
T/C (dose: 50.0 mg/kg/injection, schedule: Q04DX003 (ip), vehicle: Klucel (hydroxypropylcellulose) (HPC)): 88 % of control
T/C [1]: 89 % of control

O=P(Cc1ccccc1)(Cc1ccccc1)Cc1ccccc1
T/C [2]: 100 % of control
T/C [3]: 91 % of control
T/C [4]: 96 % of control

CCOC(=O)C(=Cc1c[nH]c2ccc(Br)cc12)C(=O)OCC
T/C [5]: 98 % of control
T/C [6]: 89 % of control
T/C [7]: 104 % of control
T/C [8]: 96 % of control
T/C [9]: 101 % of control
T/C [10]: 91 % of control

NC(=O)NC1OC(COC(=O)c2ccccc2)C(OC(=O)c2ccccc2)C1OC(=O)c1ccccc1 (stereo not given)
T/C [5]: 89 % of control
T/C [6]: 92 % of control
T/C [7]: 90 % of control
T/C [8]: 94 % of control
T/C [9]: 89 % of control
T/C [10]: 94 % of control

O=C1c2ccccc2C(=O)N1CNc1ccccc1
T/C [2]: 103 % of control
T/C [1]: 104 % of control
T/C [3]: 98 % of control
T/C [11]: 102 % of control
T/C [4]: 93 % of control
T/C [12]: 94 % of control

O=S(=O)(c1ccccc1)C(Br)c1ccccc1 (stereo not given)
T/C (dose: 100.0 mg/kg/injection, schedule: Q04DX002 (ip), vehicle: Klucel (hydroxypropylcellulose) (HPC)): 101 % of control
T/C (dose: 200.0 mg/kg/injection, schedule: Q04DX002 (ip), vehicle: Klucel (hydroxypropylcellulose) (HPC)): 105 % of control
T/C (dose: 400.0 mg/kg/injection, schedule: Q04DX002 (ip), vehicle: Klucel (hydroxypropylcellulose) (HPC)): 97 % of control

CCCCCCOc1ccc(C=Nc2ccc(C)cc2)cc1
T/C [1]: 97 % of control
T/C [11]: 103 % of control
T/C [12]: 101 % of control

Cc1ccc(S(=O)(=O)NC(=O)O/N=C/c2ccccn2)cc1
T/C [6]: 98 % of control
T/C [8]: 101 % of control
T/C [10]: 104 % of control

CC1CN1CC(O)C(O)CN1CC1C (stereo not given)
T/C (dose: 0.07 mg/kg/injection, schedule: Q01DX Z (ip), vehicle: saline): 101 % of control
T/C (dose: 0.07 mg/kg/injection, schedule: Q01DX Z (ip), vehicle: water): 108 % of control
T/C (dose: 0.1 mg/kg/injection, schedule: Q01DX Z (ip), vehicle: saline): 106 % of control
T/C (dose: 0.1 mg/kg/injection, schedule: Q01DX Z (ip), vehicle: water): 110 % of control
T/C (dose: 0.15 mg/kg/injection, schedule: Q01DX Z (ip), vehicle: saline): 106 % of control and 110 % of control
T/C (dose: 0.15 mg/kg/injection, schedule: Q01DX Z (ip), vehicle: water): 118 % of control
T/C (dose: 0.22 mg/kg/injection, schedule: Q01DX Z (ip), vehicle: saline): 104 % of control and 114 % of control
T/C (dose: 0.22 mg/kg/injection, schedule: Q01DX Z (ip), vehicle: water): 124 % of control
T/C (dose: 0.26 mg/kg/injection, schedule: Q01DX009 (ip), vehicle: saline): 160 % of control
T/C (dose: 0.26 mg/kg/injection, schedule: Q04DX003 (ip), vehicle: saline): 117 % of control
T/C (dose: 0.31 mg/kg/injection, schedule: Q01DX001 (ip), vehicle: carboxymethylcellulose (CMC)): 105 % of control
T/C (dose: 0.33 mg/kg/injection, schedule: Q01DX015 (ip), vehicle: saline): 165 % of control
T/C (dose: 0.33 mg/kg/injection, schedule: Q01DX Z (ip), vehicle: saline): 121 % of control
T/C (dose: 0.4 mg/kg/injection, schedule: Q01DX009 (ip), vehicle: saline): 152 % of control
T/C (dose: 0.5 mg/kg/injection, schedule: Q01DX001 (ip), vehicle: saline): 108 % of control
T/C (dose: 0.5 mg/kg/injection, schedule: Q01DX015 (ip), vehicle: saline): 117 % of control
T/C (dose: 0.6 mg/kg/injection, schedule: Q01DX015 (ip), vehicle: saline): 163 % of control
T/C (dose: 0.62 mg/kg/injection, schedule: Q01DX001 (ip), vehicle: carboxymethylcellulose (CMC)): 121 % of control
T/C (dose: 1.0 mg/kg/injection, schedule: Q01DX001 (ip), vehicle: saline): 113 % of control
T/C (dose: 1.0 mg/kg/injection, schedule: Q01DX015 (ip), vehicle: saline): 153 % of control and 207 % of control
T/C (dose: 1.25 mg/kg/injection, schedule: Q01DX001 (ip), vehicle: carboxymethylcellulose (CMC)): 121 % of control
T/C (dose: 1.4 mg/kg/injection, schedule: Q04DX003 (ip), vehicle: saline): 153 % of control
T/C (dose: 1.8 mg/kg/injection, schedule: Q01DX015 (ip), vehicle: saline): 97 % of control and 116 % of control
T/C (dose: 2.0 mg/kg/injection, schedule: Q01DX015 (ip), vehicle: saline): 207 % of control and 221 % of control
T/C (dose: 2.1 mg/kg/injection, schedule: Q04DX003 (ip), vehicle: saline): 166 % of control
T/C (dose: 2.5 mg/kg/injection, schedule: Q01DX001 (ip), vehicle: carboxymethylcellulose (CMC)): 150 % of control
T/C (dose: 2.5 mg/kg/injection, schedule: Q01DX001 (ip), vehicle: saline): 152 % of control
T/C (dose: 3.0 mg/kg/injection, schedule: Q01DX001 (ip), vehicle: saline): 102 % of control
T/C (dose: 3.0 mg/kg/injection, schedule: Q01DX015 (ip), vehicle: saline): 261 % of control
T/C (dose: 3.3 mg/kg/injection, schedule: Q04DX003 (ip), vehicle: saline): 160 % of control
T/C (dose: 4.0 mg/kg/injection, schedule: Q01DX001 (ip), vehicle: saline): 157 % of control
T/C (dose: 4.0 mg/kg/injection, schedule: Q01DX015 (ip), vehicle: saline): 166 % of control
T/C (dose: 5.0 mg/kg/injection, schedule: Q01DX001 (ip), vehicle: carboxymethylcellulose (CMC)): 152 % of control
T/C (dose: 5.0 mg/kg/injection, schedule: Q01DX001 (ip), vehicle: saline): 158 % of control
T/C (dose: 5.5 mg/kg/injection, schedule: Q01DX001 (ip), vehicle: saline): 157 % of control
T/C (dose: 7.5 mg/kg/injection, schedule: Q04DX003 (ip), vehicle: saline): 95 % of control and 257 % of control
T/C (dose: 8.0 mg/kg/injection, schedule: Q01DX015 (ip), vehicle: saline): 122 % of control and 86 % of control and 87 % of control
T/C (dose: 10.0 mg/kg/injection, schedule: Q01DX001 (ip), vehicle: carboxymethylcellulose (CMC)): 236 % of control
T/C (dose: 10.0 mg/kg/injection, schedule: Q01DX001 (ip), vehicle: saline): 210 % of control
T/C (dose: 11.0 mg/kg/injection, schedule: Q01DX001 (ip), vehicle: saline): 247 % of control and 108 % of control and 116 % of control
T/C (dose: 15.0 mg/kg/injection, schedule: Q01DX001 (ip), vehicle: saline): 250 % of control
T/C (dose: 20.0 mg/kg/injection, schedule: Q01DX001 (ip), vehicle: saline): 91 % of control
T/C (dose: 22.0 mg/kg/injection, schedule: Q01DX001 (ip), vehicle: saline): 168 % of control
T/C (dose: 25.0 mg/kg/injection, schedule: Q01DX001 (ip), vehicle: saline): 120 % of control
T/C (dose: 30.0 mg/kg/injection, schedule: Q01DX001 (ip), vehicle: saline): 87 % of control
T/C (dose: 41.0 micrograms/kg/injection, schedule: Q01DX015 (ip), vehicle: saline): 104 % of control
T/C (dose: 50.0 micrograms/kg/injection, schedule: Q01DX009 (ip), vehicle: saline): 101 % of control
T/C (dose: 62.0 micrograms/kg/injection, schedule: Q01DX015 (ip), vehicle: saline): 108 % of control
T/C (dose: 75.0 micrograms/kg/injection, schedule: Q01DX009 (ip), vehicle: saline): 104 % of control
T/C (dose: 113.0 micrograms/kg/injection, schedule: Q01DX009 (ip), vehicle: saline): 110 % of control
T/C (dose: 140.0 micrograms/kg/injection, schedule: Q01DX001 (ip), vehicle: saline): 113 % of control
T/C (dose: 210.0 micrograms/kg/injection, schedule: Q01DX001 (ip), vehicle: saline): 120 % of control
